Measured values as given in patent publication US4945055A, “Human chorionic gonadotropin releasing factor” (Board of Regents, University of Texas System, priority 1986, dated 1990).
Blank lines part the entries; values can stand above or below the compound they belong to.

What was measured:
[1] = system: human chorionic gonadotropin releasing factor (hCG-RF), glycoprotein purified from human term placenta, peptidase activity degrading GnRH; assay: Loss of GnRH immunoreactivity on incubation with hCG-RF (GnRH-RIA after Sephadex G-150); format: biochemical; settings: hCG-RF 41 ug, GnRH 40 ng, 24 h at 4° C.
Method: The effect of purified hCG-RF on GnRH immunoreactivity was studied. […] Chromatography of 0.1 ml of the incubate on Sephadex G-150 (1×20 cm in 0.01M TRIS, 0.001M DTT) followed, collecting 1 ml fraction. Immunoreactive GnRH was determined by GnRH-RIA.

[2] = molecular target: placental receptor recognizing synthetic GnRH; settings: read-out: dissociation constant of the placental receptor for synthetic GnRH; cited from earlier work

reversal of the loss of GnRH immunoreactivity effected by incubation with hCG-RF ([1]; 175 mM para-amino-benzamidine added with the buffer): totally reversed
Compound: N=C(N)c1ccc(N)cc1 [para-amino-benzamidine]

Compound: CC(C)C[C@H](NC(=O)CNC(=O)[C@H](Cc1ccc(O)cc1)NC(=O)[C@H](CO)NC(=O)[C@H](Cc1c[nH]c2ccccc12)NC(=O)[C@H](Cc1c[nH]cn1)NC(=O)[C@@H]1CCC(=O)N1)C(=O)N[C@@H](CCCNC(=N)N)C(=O)N1CCC[C@H]1C(=O)NCC(N)=O [synthetic GnRH, pyro-glu-his-trp-ser-tyr-gly-leu-arg-pro-gly-NH2]
Kd [2]: 100 nM

Compound: bacitracin
reversal of the loss of GnRH immunoreactivity effected by incubation with hCG-RF ([1]; 5000 unit bacitracin added with the buffer): totally reversed
